Results on eleven molecules are retold here after patent US10385022B2, “3-amino-pyridines as GPBAR1 agonists” (HOFFMANN-LA ROCHE INC., priority 2011, dated 2019).

Usually EC50 stands for the concentration needed to bring the measured effect to its halfway point.

The assay concerns the target human GPBAR1 receptor (Homo sapiens (Human), UniProt Q8TDU6). In words: functional cAMP assay in CHO-dhfr(minus) cells expressing human GPBAR1 receptors. Type of assay: cell-based. Conditions: CHO-dhfr(minus) cells expressing human GPBAR1, 30 min at 30° C. Put shortly:
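CHO-dhfr- cells were transfected with human GPBAR1, and a clone was chosen by cAMP response to lithocholic acid. EC50 values come from the cAMP read-out; specificity was checked in non-transfected CHO cells.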
For orientation: cAMP levels reflect the balance of adenylyl cyclase and phosphodiesterase activity.

human GPBAR1 receptor, sequence (Q8TDU6 whole entry): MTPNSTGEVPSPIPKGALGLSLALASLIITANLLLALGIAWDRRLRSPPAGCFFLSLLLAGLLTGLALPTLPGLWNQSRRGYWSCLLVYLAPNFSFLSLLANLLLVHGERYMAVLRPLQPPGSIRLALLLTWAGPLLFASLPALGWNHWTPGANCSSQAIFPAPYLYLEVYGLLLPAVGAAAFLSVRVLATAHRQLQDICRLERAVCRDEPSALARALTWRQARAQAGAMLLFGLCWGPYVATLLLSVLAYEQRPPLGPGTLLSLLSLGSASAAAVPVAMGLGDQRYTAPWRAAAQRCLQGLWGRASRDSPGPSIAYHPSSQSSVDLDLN

`CN(C(=O)c1cc(C(F)(F)F)cc(S(C)(=O)=O)c1)c1cnccc1-c1cccnc1Cl` [Example 313, N-(2-Chloro-[3,4′]bipyridinyl-3′-yl)-3-methanesulfonyl-N-methyl-5-trifluoromethyl-benzamide] yielded an EC50 of 1220 nM. In other words, the single-digit micromolar range.
For the molecule `COc1cc(F)ccc1-c1cc(C)ncc1N(C)C(=O)c1cc(C(F)(F)F)cc(S(=O)(=O)C2COC2)c1` [Example 314, N-[4-(4-Fluoro-2-methoxy-phenyl)-6-methyl-pyridin-3-yl]-N-methyl-3-(oxctane-3-sulfonyl)-5-trifluoromethyl-benzamide], the midpoint of the response, the EC50, lay at 115 nM.
For `COc1cc(F)ccc1-c1cc(C)ncc1N(C)C(=O)c1cc(SCCCCC(=O)NCC(=O)O)cc(C(F)(F)F)c1` [Example 315, [5-(3-{[4-(4-Fluoro-2-methoxy-phenyl)-6-methyl-pyridin-3-yl]-methyl-carbamoyl}-5-trifluoromethyl-phenylsulfanyl)-pentanoylamino]-acetic acid] the value was 451 nM; for `COc1cc(F)c(Cl)cc1-c1cc(C)ncc1N(C)C(=O)c1cc(C(F)(F)F)cc(S(=O)(=O)CCCCC(=O)O)c1` [Example 316, 5-(3-{[4-(5-Chloro-4-fluoro-2-methoxy-phenyl)-6-methyl-pyridin-3-yl]-methyl-carbamoyl}-5-trifluoromethyl-benzenesulfonyl)-pentanoic acid], 926 nM; for `COc1cc(F)ccc1-c1cc(C)ncc1N(C)C(=O)c1cc(C(F)(F)F)cc(S(=O)(=O)CCCCC(=O)NCC(=O)O)c1` [Example 317, [5-(3-{[4-(4-Fluoro-2-methoxy-phenyl)-6-methyl-pyridin-3-yl]-methyl-carbamoyl}-5-trifluoromethyl-benzenesulfonyl)-pentanoylamino]-acetic acid], 418 nM.
For the molecule `Cc1cc(-c2ccccc2OC2COC2)c(N(C)C(=O)c2cc(C(F)(F)F)cc(S(C)(=O)=O)c2)cn1` [Example 318, 3-Methanesulfonyl-N-methyl-N-{6-methyl-4-[2-(oxetan-3-yloxy)-phenyl]-pyridin-3-yl}-5-trifluoromethyl-benzamide], the EC50 came to 1110 nM.
With `CS(=O)(=O)c1cc(C(=O)N(CC(N)=O)c2cnccc2-c2ccccc2OC(F)(F)F)cc(C(F)(F)F)c1` [Example 319, N-Carbamoylmethyl-3-methanesulfonyl-N-[4-(2-trifluoromethoxy-phenyl)-pyridin-3-yl]-5-trifluoromethyl-benzamide] the figure was 3340 nM; with `CN(C(=O)c1cc(C(F)(F)F)cc(S(C)(=O)=O)c1)c1cnccc1-c1cccnc1OC1CN(C(=O)OC(C)(C)C)C1` [Example 320, 3-{3′-[(3-Methanesulfonyl-5-trifluoromethyl-benzoyl)-methyl-amino]-[3,4′]bipyridinyl-2-yloxy}-azetidine-1-carboxylic acid tert-butyl ester], 2720 nM; with `Cc1cc(-c2ccccc2OCC2COC2)c(N(C)C(=O)c2cc(C(F)(F)F)cc(S(C)(=O)=O)c2)cn1` [Example 321, 3-Methanesulfonyl-N-methyl-N-{6-methyl-4-[2-(oxetan-3-ylmethoxy)-phenyl]-pyridin-3-yl}-5-trifluoromethyl-benzamide], 1880 nM.
For `CN(C(=O)c1cc(C(F)(F)F)cc(C(F)(F)F)c1)c1cnccc1-c1ccccc1` [Example 322, N-Methyl-N-(4-phenyl-pyridin-3-yl)-3,5-bis-trifluoromethyl-benzamide] the value was 11 nM; for `CN(C(=O)c1cc(C(F)(F)F)cc(S(C)(=O)=O)c1)c1cnccc1-c1ccccc1` [Example 323, 3-Methanesulfonyl-N-methyl-N-(4-phenyl-pyridin-3-yl)-5-trifluoromethyl-benzamide], 104 nM.
